We go through one substance from patent US20250367302A1, “SMALL MOLECULE DRUG-OLIGONUCLEOTIDE CONJUGATE AND USE THEREOF” (SHANGHAI JIAO TONG UNIVERSITY, priority 2022, published 2025).

For series [1], the system named is mice with xerophthalmia (0.2% benzalkonium chloride). The series is described as follows: Benzalkonium chloride xerophthalmia mouse model: sodium fluorescein staining and phenol red cotton thread tear test. The class given is in vivo, mouse (C57BL/6). The protocol: The ocular xerophthalmia model was established in 6-8 weeks old mice (C57BL/6, Suzhou Xishan Biotechnology Co., Ltd.) with 0.2% benzalkonium chloride. 5 μL of 0.2% benzalkonium chloride was dripped into each eye of the mice, once in the morning and once in the evening every day, for two consecutive weeks. After successful modeling, the hospital-prepared CsA eye drops (400 µM CsA, referred to as hospital-prepared CsA eye drops or CsA eye drops, provided by the Eye, Ear, Nose and Throat Hospital Affiliated to Fudan University School of Medicine, Shanghai) and CsA-ASONFKBIZ-m (400 µM CsA) were used for eye drops treatment, 5 μL per eye, once in the morning and once in the evening. Sodium fluorescein staining and phenol red cotton thread tear secretion test were conducted on days 0, 7, and 14 of treatment to evaluate the therapeutic effect.
(§1) The ocular xerophthalmia model was established in 6-8 weeks old mice (C57BL/6, Suzhou Xishan Biotechnology Co., Ltd.) with 0.2% benzalkonium chloride. 5 μL of 0.2% benzalkonium chloride was dripped into each eye of the mice, once in the morning and once in the evening every day, for two consecutive weeks. After successful modeling, the hospital-prepared CsA eye drops (400 μM CsA, provided by the Eye, Ear, Nose and Throat Hospital Affiliated to Fudan University School of Medicine, Shanghai) and 2CsA-ASONFKBIZ-m (400 µM CsA) were used for eye drops treatment, 5 μL per eye, once in the morning and once in the evening. Sodium fluorescein staining and phenol red cotton thread tear secretion test were conducted on days 0, 7, and 14 of treatment to evaluate the therapeutic effect.
as §1, with “µM” for “μM”, “provided” for “provided by”, “3CsA-ASONFKBIZ-m nanomicelles (133 µM ASO concentration, 400” for “2CsA-ASONFKBIZ-m (400”
as §1, with “CsA3-ASONFKBIZ-m nanomicelles” for “2CsA-ASONFKBIZ-m”, “0” for “0, 7,”
The ocular xerophthalmia model was established in 6-8 weeks old mice (C57BL/6, Suzhou Xishan Biotechnology Co., Ltd.) using 0.2% benzalkonium chloride. 5 μL of 0.2% benzalkonium chloride was dripped into each eye of the mouse, once in the morning and once in the evening every day for two weeks. After successful modeling, the hospital-prepared CsA eye drops (400 µM CsA, provided by the Eye, Ear, Nose and Throat Hospital Affiliated to Fudan University School of Medicine, Shanghai) and CsA-siRNANFKBIZ-m (400 µM CsA), 2CsA-siRNANFKBIZ-m nanomicelles (400 µM CsA), 3CsA-siRNANFKBIZ-m nanomicelles (400 µM CsA) were used for eye drops treatment, 5 μL per eye, once in the morning and once in the evening. […]

Series [2] has as its system psoriasis-like model mice (5% imiquimod cream). Put plainly: Imiquimod psoriasis-like mouse model, smear administration in carbomer gel. The class given is in vivo. Conditions: nanomicelles in carbomer gel applied to skin lesions, after 7 d of treatment. The protocol: The psoriasis model on the back and ears of 6-8 weeks old mice (C57BL/6, Suzhou Xishan Biotechnology Co., Ltd.) was established with 5% imiquimod cream. After removing the hair on the back of the mice, 60 mg of 5% imiquimod cream was applied to the back and ears of each mouse for 6 consecutive days. […] CsA3-ASONFKBIZ-m nanomicelles were mixed with carbomer gel and applied to the skin lesions for treatment. The carbomer gel without CsA3-ASONFKBIZ-m nanomicelles was used as a control group (control) for efficacy testing. On the 7 d of treatment, the thickness of the skin at the back lesions and the thickness of the ears were measured, and the erythema, scaling, skin thickening, and severity of the psoriasis lesions were scored. The results were shown in FIG. 54, FIGS. 55A-55B, and FIGS. 56A-56D.
The psoriasis model on the back and ears of 6-8 weeks old mice was established with 5% imiquimod cream. After removing the hair on the back of the mice, 60 mg of 5% imiquimod cream was applied to the back and ears of each mouse for 6 consecutive days. […] 10TA-ASONFKBIZ-m nanomicelles were mixed with carbomer gel and applied to the skin lesions for treatment. […] On the 7 d of treatment, the thickness of the skin at the back lesions and the thickness of the ears were measured, and the erythema, scaling, skin thickening, and severity of the psoriasis lesions were scored. […]

The mark [3] stands for this setting: eye drops 5 μL per eye twice daily, 400 μM CsA (10RAP: 400 μM rapamycin), day 14.
Setting [4] is: xerophthalmia mice, baseline of the treatment group.

Take “CsA3-ASONFKBIZ-m: CsA trimer on tripropargyl linker at 3′ end of ASO targeting mouse NFKBIZ (SEQ ID NO: 8) (AATACTGGTACATTGACGCC; 3'-NHS ASO with tripropargyl linker carrying three cyclosporin A, chemistry not given here, further chemistry not given here)”: in series [1] (setting [3]), the “phenol red cotton thread infiltration length (tear secretion) after 14 d of treatment” value was “about 3.5 mm” and the “sodium fluorescein staining eye score after 14 d of treatment” value was “about 6 points”. Further, in series [1] (setting [4]), the “phenol red cotton thread infiltration length (tear secretion), day 0 (before treatment)” value was found to be 1.5 mm and the “sodium fluorescein staining eye score, day 0 (before treatment)” value came out at 10 points. Further, in series [2], the “erythema and scaling of the skin lesions versus control group” value is reported as “significantly reduced”; the “skin thickness of the lesions (and ears) versus control group” value is recorded as “reduced”.
